This note sets out measurements from PubChem BioAssay AID651760 (The Scripps Research Institute Molecular Screening Center, 2012).

Active and inactive are the calls of the source. The rule behind the calls is not given here.

For orientation: IC50 means the midpoint of a concentration-inhibition curve.

Hepatocyte nuclear factor 4-alpha (Homo sapiens), sequence (P41235 whole entry, looked up): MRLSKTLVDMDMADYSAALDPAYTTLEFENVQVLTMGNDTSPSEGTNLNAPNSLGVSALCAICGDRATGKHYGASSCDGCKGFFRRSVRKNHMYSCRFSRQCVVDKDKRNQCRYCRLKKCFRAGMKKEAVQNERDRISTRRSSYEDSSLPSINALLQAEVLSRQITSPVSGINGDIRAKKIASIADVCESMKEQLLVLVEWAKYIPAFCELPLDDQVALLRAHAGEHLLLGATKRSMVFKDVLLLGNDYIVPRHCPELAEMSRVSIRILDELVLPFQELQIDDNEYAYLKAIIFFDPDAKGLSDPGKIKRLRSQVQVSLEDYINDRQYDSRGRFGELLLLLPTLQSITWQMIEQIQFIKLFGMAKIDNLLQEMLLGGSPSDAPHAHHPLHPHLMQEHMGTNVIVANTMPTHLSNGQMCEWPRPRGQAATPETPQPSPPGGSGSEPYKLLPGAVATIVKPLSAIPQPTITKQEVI

This experiment concerns the target Hepatocyte nuclear factor 4-alpha (Homo sapiens) (UniProt P41235). The experiment is described as follows: IC50 for blocking HNF4 dimer formation – biochemical, luminescence, late stage, counter-screen for ABHD5-PLIN5 interaction inhibitor project, dose response (AID 651760). To be noted: HNF4 dimerization, luminescence biochemical assay. On the technique in general: A counterscreen serves to expose hits that act by an unwanted route or on another target.
For `CC1CCN(S(=O)(=O)c2ccc(NC(=O)Cc3ccccc3)cc2)CC1`, the IC50 is > 39.8 µM (inactive).

As for `COc1cc(C)c2sc3ccccc3c(=O)c2c1NCCN(C)C`, the IC50 is > 39.8 µM (inactive).

As for `CCN(CC)CCOc1ccc(/C(=C(/Cl)c2ccccc2)c2ccccc2)cc1`, the concentration for half-maximal inhibition (IC50) was 5.09 µM.

In the case of `Cc1cc(C)c(NC(=O)CN2CCN3CCCC3C2)c(C)c1` (stereo not given), the IC50 is > 39.8 µM (inactive).

For the compound `CCCCNC(=O)Nc1ccc2c(c1)N(C)C(=O)c1ccccc1S2`, the IC50 is > 39.8 µM (inactive).

Consider `CCN(CC)CCOCCOC(=O)C1(c2ccccc2)CCCC1`, for which the concentration for half-maximal inhibition (IC50) is 6.03 µM.

For `CC1=CC(C)(C)Nc2ccc(OC(=O)C(C)N3C(=O)c4ccccc4C3=O)cc21` (stereo not given), the IC50 result is “inactive”.

`CC(=O)Nc1ccc(S(=O)(=O)N2c3ccc(F)cc3CCC2C)cc1` (stereo not given): the IC50 is > 39.8 µM (inactive).

As to `FC(F)(F)c1cccc(NC(=S)N(CCCN2CCCC2)Cc2cccn2Cc2ccc(Cl)cc2)c1`, the IC50 was > 39.8 µM (inactive).

As to `C=C[C@]1(C)C[C@@H](OC(=O)CSCCN(CC)CC)[C@]2(C)C(C)CC[C@]3(CCC(=O)[C@H]32)[C@@H](C)[C@@H]1O` (stereo not given in full), the IC50 is > 39.8 µM (inactive).

Consider `COCCN(CCOC)c1nc(N)c2c(N)nc3c(c2c1C#N)CC(=O)N3Cc1ccc(Cl)cc1`, for which the IC50 was > 39.8 µM (inactive).

Regarding `CCCNC(=O)Nc1ccc2c(c1)N(C)C(=O)c1ccccc1S2`, the IC50 is > 39.8 µM (inactive).

For the compound `Cc1ccc2nc3cc([N+](=O)[O-])cc([N+](=O)[O-])c3cc2c1`, the IC50 result was “inactive”.

Regarding `O=c1[nH]c(C2CCN(S(=O)(=O)c3ccc(F)cc3)CC2)nc2c1nnn2Cc1ccc2c(c1)OCCO2`, the IC50 is > 39.8 µM (inactive).

Regarding `CCOC(=O)c1c(NC(=O)/C=C/C(=O)O)sc(C)c1-c1ccc(C(C)(C)C)cc1`, the IC50 was 8.97 µM.

For the compound `COc1ccccc1-c1cc(C(=O)NC2CCN(C)CC2)c2ccc(Cl)c(C)c2n1`, the IC50 was > 39.8 µM (inactive).

In the case of `CN1CCC(=C2c3ccccc3CC(=O)c3sccc32)CC1`, the IC50 was > 39.8 µM (inactive).

In the case of `Cc1nc2c(o1)CCc1ccccc1C2N1CCN(C)CC1` (stereo not given), the IC50 is > 39.8 µM (inactive).

Consider `O=c1[nH]c(C2CCN(S(=O)(=O)c3ccc(S(=O)(=O)NC4CC4)cc3)CC2)nc2c1nnn2Cc1ccc(F)cc1`, for which the IC50 was > 39.8 µM (inactive).

`CN(C)CCCN(C(=O)CCc1ccccc1)c1nc2ccc(Cl)cc2s1`: the IC50 is > 39.8 µM (inactive).

`CCN(CC)CCN(CC(=O)Nc1c(C)cc(C)cc1C)C(=O)c1ccccc1`: the IC50 is > 39.8 µM (inactive).

Take `CCOC(=O)c1c(NC(C)=O)sc2c1CCC(C=O)=C2Sc1ccccc1`: the IC50 entry is “inactive”.

Turning to `O=C(/C(=C/O)N=Nc1ccc(Cl)cc1)c1ccncc1`, the IC50 entry is “inactive”.

Take `COc1cc2c(cc1OC)C(C)N(CCc1ccc(Cl)cc1)CC2` (stereo not given): the IC50 was > 39.8 µM (inactive).

As for `CN(C)CCCN(C(=O)CCc1ccccc1)c1nc2ccc(Br)cc2s1`, the IC50 is > 39.8 µM (inactive).

As for `CN(C)CCOC1(Cc2ccc(F)cc2)CCC(C(C)(C)C)CC1` (stereo not given), the IC50 was > 39.8 µM (inactive).

Turning to `CCCCOC(=O)Nc1cc(C(=O)OC)ccc1C(=O)OC`, the IC50 is > 39.8 µM (inactive).

As to `COc1ccc(C)c2sc(N(CCN(C)C)C(=O)/C=C/c3cccs3)nc12`, the IC50 entry is “inactive”.

`CC(=O)Cc1cc(O)c2ccccc2c1OC(=O)c1ccc(Br)cc1`: the IC50 result is “inactive”.

With `CN(C)CCN(Cc1ccco1)c1ccccn1`, the IC50 was > 39.8 µM (inactive).

Turning to `CCN(CC)CCC(C)OC(c1ccccc1)c1ccccc1` (stereo not given), the concentration for half-maximal inhibition (IC50) was 5.57 µM.

For `CCOc1cc(N)c(Cl)cc1C(=O)NCC1CN(Cc2ccc(F)cc2)CCO1` (stereo not given), the IC50 is 4.18 µM.

`COc1ccc(NC(=S)N(CCCN2CCCC2)Cc2cccn2Cc2ccc(Cl)cc2)cc1Cl`: the IC50 is > 39.8 µM (inactive).

In the case of `NC(=NCCCCCCN=C(N)/N=C(\N)Nc1ccc(Cl)cc1)/N=C(\N)Nc1ccc(Cl)cc1`, the IC50 entry was “inactive”.

`CCN(CC)CCNC(=O)c1ccc(NC(=O)c2cn(-c3ccccc3)nc2-c2cccs2)cc1`: the IC50 is > 39.8 µM (inactive).

Regarding `O=C(C[n+]1cccc(CNC(=O)c2ccc(OC(F)F)cc2)c1)Nc1cccc(C(F)(F)F)c1`, the IC50 was > 39.8 µM (inactive).

Take `CC1CCN(S(=O)(=O)c2ccc(NC(=O)Cc3cccs3)cc2)CC1`: the IC50 is > 39.8 µM (inactive).

Turning to `CC(=O)Cc1cc(O)c2ccccc2c1OC(=O)c1ccccc1`, the IC50 is 8.21 µM.

Take `COc1cc(OC)cc(C(=O)NC(=S)N(Cc2ccccc2)C(C)C)c1`: the IC50 is > 39.8 µM (inactive).

Turning to `CC(C)c1ccc(N2C=Nc3ccc(C(C)C)cc3C2)cc1`, the IC50 was 2.8 µM.
